For orientation: IC50 means the concentration needed to halve the response being measured.

For experiment [1], the system named is human hepatocellular carcinoma cell line HepG-2. In words: MTT assay, inhibition of tumor cell growth (HepG2). Type of experiment: cell-based. The note with it: 72 hours incubation, read-out: IC50 on the tumor cells HepG2. The method, then: (§1) human hepatocellular carcinoma cell line HepG-2, human lung adenocarcinoma epithelial cell line A549
(§2) Tumor cells were seeded in RPM11640 medium containing 10% calf serum, incubated at 37° C., 5% CO2 in CO2 incubator, and passaged every 2-3 days. Cells at logarithmic growth phase were used for this experiment.
(§3) The cells at logarithmic growth phase were formulated into suspension. The cell viability by trypan blue staining was more than 98%. The cell suspension was divided into several groups: 1 as blank control group (cell suspension plus solvent DMSO); and 2 as experimental groups (cell suspension plus compounds to be tested).
(§4) The drugs were formulated into a stock solution in DMSO, and the concentration of the stock solution was 20 mmol (used within 4 hours). In the experiment, the work solution of the drugs was diluted with RPMI1640 medium containing 10% calf serum under aseptic condition, to a final concentration of […]. The drug concentrations were increased by 2 times (1.25-20 μM).
(§5) The cells in logarithmic growth phase were selected, centrifuged, counted, and formulated into a cell suspension (2.5×10^4/ml) with RPMI1640 medium containing 10% calf serum. The cell suspension were inoculated into 96-well plates at a density of 5000 cells/200 μl per well, incubated for 24 hours at 37° C., 5% CO2. According to the above concentration of the drug, the cells were inoculated to 6 groups (including one control group), with 8 wells per group. After incubating for 72 hours, the viability of cells was measured by MTT assay. The absorbance value (A) was measured with detection wavelength at 540 nm, reference wavelength at 630 nm. The inhibitory rate (I) was calculated by the following equation, where T was the absorbance value of the experimental groups, and C was the absorbance value of the blank control group: I=(1−T/C)×100%
(§6) Equation of regression line was drawn from concentration-inhibitory rate curve, from which the IC50 of tested sample was calculated.

Experiment [2] relates to human lung adenocarcinoma epithelial cell line A549. In words: MTT assay, inhibition of tumor cell growth (A549). The note with it: 72 hours incubation, read-out: IC50 on the tumor cells A549. The class given is cell-based. How it is done: as §1, §2, §3, §4, §5, §6
(Tetrazolium assays rely on reduction of a dye to a coloured formazan, in cell work by metabolically active cells.)

Bounds are passed on as bounds.

Consider `O=C1Nc2ccccc2C1=C1Oc2ccccc2C1=O` [Compound 1], for which the IC50 in experiment [1] is > 100 µM; in experiment [2], 40 ± 1.4 µM.

As for `O=C1Nc2c(F)cccc2C1=C1Oc2ccccc2C1=O` [Compound 2], the IC50 in experiment [2] was > 100 µM.

Consider `CCN1C(=O)C(=C2Oc3ccccc3C2=O)c2ccccc21` [Compound 3], for which the 50% inhibitory concentration (IC50) in experiment [1] turned out to be 26.4 ± 1.1 µM; in experiment [2], 21.9 ± 0.9 µM. Take `CCN1C(=O)C(=C2Oc3ccccc3C2=O)c2cccc(F)c21` [Compound 4]: the IC50 in experiment [1] stood at 31.5 ± 2.9 µM; in experiment [2], 9.5 ± 2.1 µM. For the molecule `CCN1C(=O)C(=C2Oc3ccccc3C2=O)c2cc(Cl)ccc21` [Compound 5], the figures for the IC50 in experiment [1] and in experiment [2] were 87 ± 2.1 µM and 11.5 ± 1 µM, respectively.

Take `CCN1C(=O)C(=C2Oc3ccccc3C2=O)c2ccc(Cl)cc21` [Compound 6]: the IC50 in experiment [1] stood at 60 ± 1.7 µM; in experiment [2], 11.9 ± 1.4 µM. The corresponding values for `CCN1C(=O)C(=C2Oc3ccccc3C2=O)c2cc(C)ccc21` [Compound 7] are 19 ± 1.6 µM and 8 ± 1.2 µM.

As for `CC(C)N1C(=O)C(=C2Oc3ccccc3C2=O)c2ccccc21` [Compound 8], the IC50 in experiment [1] was found to be 32.2 ± 2.4 µM; in experiment [2], 10 ± 1.4 µM. Taken in the same sequence, the figures for `CC(C)N1C(=O)C(=C2Oc3ccccc3C2=O)c2cc(F)ccc21` [Compound 9] were 25 ± 1 µM and 18.5 ± 1.8 µM. Taken in the same sequence, the figures for `CC(C)N1C(=O)C(=C2Oc3ccccc3C2=O)c2cccc(F)c21` [Compound 10] were 28.5 ± 1.3 µM and 8.1 ± 0.6 µM.

As for `CC(C)N1C(=O)C(=C2Oc3ccccc3C2=O)c2cc(Cl)ccc21` [Compound 11], the IC50 in experiment [1] was found to be 45 ± 1.9 µM; in experiment [2] it was 8.5 ± 1.6 µM. For the molecule `CC(C)N1C(=O)C(=C2Oc3ccccc3C2=O)c2ccc(Cl)cc21` [Compound 12], the values for the IC50 in experiment [1] and in experiment [2] were 26 ± 2.7 µM and 14 ± 1.7 µM, respectively.

On to `Cc1ccc2c(c1)C(=C1Oc3ccccc3C1=O)C(=O)N2C(C)C` [Compound 13], for which the IC50 in experiment [1] worked out at 42 ± 1.8 µM; in experiment [2], 11 ± 1.2 µM.

As for `O=C1C(=C2C(=O)N(Cc3ccccc3)c3ccccc32)Oc2ccccc21` [Compound 14, N1-benzyl-1′-oxo-indirubin], the IC50 in experiment [1] came out at 24 ± 1.5 µM; in experiment [2], 7 ± 1.6 µM.

Take `O=C1C(=C2C(=O)N(Cc3ccccc3)c3ccc(F)cc32)Oc2ccccc21` [Compound 15]: the figures for the IC50 in experiment [1] and in experiment [2] were 34 ± 0.9 µM and 7.4 ± 1.7 µM, respectively. Consider `O=C1C(=C2C(=O)N(Cc3ccccc3)c3ccc(Cl)cc32)Oc2ccccc21` [Compound 16], for which the IC50 came out at 61 ± 2.9 µM in experiment [1] and 16 ± 2 µM in experiment [2]. With `Cc1ccc2c(c1)C(=C1Oc3ccccc3C1=O)C(=O)N2Cc1ccccc1` [Compound 17], the figures for the IC50 in experiment [1] and in experiment [2] were 25 ± 2.7 µM and 8 ± 2.3 µM, respectively.

Regarding `CCN1C(=O)C(=C2Oc3ccccc3C2=O)c2cc(F)ccc21` [Compound 18], the figures for the IC50 in experiment [1] and in experiment [2] were 17 ± 1.9 µM and 7.05 ± 1.1 µM, respectively. Taken in the same sequence, the figures for `CCN1C(=O)C(=C2Oc3ccc(Cl)cc3C2=O)c2ccccc21` [Compound 19] were 8 ± 1.5 µM and 16 ± 1.5 µM. The corresponding values for `CCN1C(=O)C(=C2Oc3ccc(Cl)cc3C2=O)c2cccc(F)c21` [Compound 20] are 12 ± 1.4 µM and 1.8 ± 1 µM. Taken in the same sequence, the figures for `CCN1C(=O)C(=C2Oc3ccc(Cl)cc3C2=O)c2cc(Cl)ccc21` [Compound 21] were 12 ± 1.9 µM and 4 ± 2.4 µM. On to `CCN1C(=O)C(=C2Oc3ccc(Cl)cc3C2=O)c2ccc(Cl)cc21` [Compound 22], for which the half-maximal inhibitory concentration (IC50) in experiment [1] stood at 7.1 ± 1.1 µM; in experiment [2], 2.7 ± 1.2 µM.

With `CC(C)N1C(=O)C(=C2Oc3ccc(Cl)cc3C2=O)c2cc(Cl)ccc21` [Compound 23], the IC50 turned out to be 6.9 ± 0.8 µM in experiment [1] and 3.1 ± 0.8 µM in experiment [2]. Taken in the same sequence, the figures for `CC(C)N1C(=O)C(=C2Oc3ccc(Cl)cc3C2=O)c2ccc(Cl)cc21` [Compound 24] were 12.1 ± 0.9 µM and 3.8 ± 1.5 µM.

In the case of `O=C1Nc2ccccc2C1=C1Oc2ccccc2C1=NO` [Compound 25], the IC50 in experiment [1] is 5 ± 0.9 µM; in experiment [2], 3.7 ± 0.9 µM. For `O=C1Nc2c(F)cccc2C1=C1Oc2ccccc2C1=NO` [Compound 26], the IC50 in experiment [1] was 29 ± 1.8 µM; in experiment [2], 5.4 ± 0.6 µM.

In the case of `CCN1C(=O)C(=C2Oc3ccccc3C2=NO)c2ccccc21` [Compound 27], the values for the half-inhibitory concentration (IC50) in experiment [1] and in experiment [2] were 19 ± 1.1 µM and 7.1 ± 0.7 µM, respectively.

Consider `CCN1C(=O)C(=C2Oc3ccccc3C2=NO)c2cccc(F)c21` [Compound 28], for which the IC50 turned out to be 30 ± 1.5 µM in experiment [1] and 7 ± 1.3 µM in experiment [2]. For the molecule `CCN1C(=O)C(=C2Oc3ccccc3C2=NO)c2cc(Cl)ccc21` [Compound 29], the figures for the IC50 in experiment [1] and in experiment [2] were 7.7 ± 1.2 µM and 3.6 ± 0.2 µM, respectively. Taken in the same sequence, the figures for `CCN1C(=O)C(=C2Oc3ccccc3C2=NO)c2ccc(Cl)cc21` [Compound 30] were 3 ± 0.5 µM and 3.8 ± 0.5 µM. As for `CCN1C(=O)C(=C2Oc3ccccc3C2=NO)c2cc(C)ccc21` [Compound 31], the half-maximal inhibitory concentration (IC50) came to 2.8 ± 0.4 µM in experiment [1] and 1.2 ± 0.8 µM in experiment [2]. Consider `CC(C)N1C(=O)C(=C2Oc3ccccc3C2=NO)c2ccccc21` [Compound 32], for which the IC50 is 12.8 ± 1.6 µM in experiment [1] and 10.5 ± 1.3 µM in experiment [2].

With `O=C1C(=C2Oc3ccccc3C2=NO)c2ccccc2N1C1OC(CO)C(O)C1O` (stereo not shown) [Compound 33], the IC50 in experiment [1] is 21 ± 0.9 µM; in experiment [2], 14.8 ± 1.2 µM. Consider `CC(C)N1C(=O)C(=C2Oc3ccccc3C2=NO)c2cccc(F)c21` [Compound 34], for which the 50% inhibitory concentration (IC50) in experiment [1] is 51.1 ± 2.6 µM; in experiment [2], 14.1 ± 1.5 µM. Taken in the same sequence, the figures for `CC(C)N1C(=O)C(=C2Oc3ccccc3C2=NO)c2cc(Cl)ccc21` [Compound 35] were 29.2 ± 1.4 µM and 17.5 ± 1.8 µM.

On to `CC(C)N1C(=O)C(=C2Oc3ccccc3C2=NO)c2ccc(Cl)cc21` [Compound 36], for which the results for the IC50 in experiment [1] and in experiment [2] were 31.5 ± 1.8 µM and 10 ± 0.6 µM, respectively. The corresponding values for `Cc1ccc2c(c1)C(=C1Oc3ccccc3C1=NO)C(=O)N2C(C)C` [Compound 37] are 41 ± 1.7 µM and 9 ± 2.1 µM. The corresponding values for `O=C1C(=C2Oc3ccccc3C2=NO)c2ccccc2N1Cc1ccccc1` [Compound 38, N1-benzyl-1′-oxo-indirubin-3′-oxime] are 32.2 ± 1.5 µM and 9.05 ± 1.4 µM. The corresponding values for `O=C1C(=C2Oc3ccccc3C2=NO)c2cc(F)ccc2N1Cc1ccccc1` [Compound 39] are 19 ± 2.1 µM and 33 ± 2.9 µM. As to `O=C1C(=C2Oc3ccccc3C2=NO)c2cc(Cl)ccc2N1Cc1ccccc1` [Compound 40], the IC50 in experiment [1] is > 100 µM; in experiment [2], 14 ± 1.2 µM. The corresponding values for `Cc1ccc2c(c1)C(=C1Oc3ccccc3C1=NO)C(=O)N2Cc1ccccc1` [Compound 41] are 45 ± 3 µM and 8.3 ± 1.7 µM.

Regarding `CCN1C(=O)C(=C2Oc3ccccc3C2=NO)c2cc(F)ccc21` [Compound 42], the half-maximal inhibitory concentration (IC50) in experiment [1] is 28 ± 2.5 µM; in experiment [2] it was 15 ± 1.2 µM. With `CCN1C(=O)C(=C2Oc3ccc(Cl)cc3C2=NO)c2ccccc21` [Compound 43], the IC50 in experiment [1] came out at 42 ± 4.2 µM; in experiment [2], 14 ± 1.7 µM.

As for `CCN1C(=O)C(=C2Oc3ccc(Cl)cc3C2=NO)c2cccc(F)c21` [Compound 44], the half-inhibitory concentration (IC50) in experiment [1] and in experiment [2] was > 100 µM throughout. Take `CCN1C(=O)C(=C2Oc3ccc(Cl)cc3C2=NO)c2cc(Cl)ccc21` [Compound 45]: the IC50 in experiment [1] came out at 3.6 ± 0.2 µM; in experiment [2], 4.8 ± 0.6 µM. The corresponding values for `CCN1C(=O)C(=C2Oc3ccc(Cl)cc3C2=NO)c2ccc(Cl)cc21` [Compound 46] are 3.8 ± 0.5 µM and 3.4 ± 0.7 µM. Taken in the same sequence, the figures for `CC(C)N1C(=O)C(=C2Oc3ccccc3C2=NO)c2cc(Cl)ccc21` [Compound 47] were 1.6 ± 0.8 µM and 1.7 ± 0.8 µM. Taken in the same sequence, the figures for `CC(C)N1C(=O)C(=C2Oc3ccc(Cl)cc3C2=NO)c2ccc(Cl)cc21` [Compound 48] were 2.6 ± 0.4 µM and 1.9 ± 0.4 µM.

For `CON=C1C(=C2C(=O)Nc3ccccc32)Oc2ccccc21` [Compound 49], the IC50 in experiment [1] was 4.8 ± 0.7 µM; in experiment [2] it was 9.5 ± 0.6 µM. Taken in the same sequence, the figures for `CON=C1C(=C2C(=O)Nc3c(F)cccc32)Oc2ccccc21` [Compound 50] were 2.9 ± 0.5 µM and 7.7 ± 1.2 µM. The corresponding values for `CCN1C(=O)C(=C2Oc3ccccc3C2=NOC)c2ccccc21` [Compound 51] are 1.7 ± 0.6 µM and 3.9 ± 0.5 µM. Taken in the same sequence, the figures for `CCN1C(=O)C(=C2Oc3ccccc3C2=NOC)c2cccc(F)c21` [Compound 52] were 2.1 ± 0.2 µM and 2.8 ± 0.4 µM. For the molecule `CON=C1C(=C2C(=O)N(C3OC(CO)C(O)C(O)C3O)c3ccc(Cl)cc32)Oc2ccccc21` (stereo not shown) [Compound 53], the IC50 came out at 16 ± 1.5 µM in experiment [1] and 2.1 ± 0.5 µM in experiment [2].

Regarding `CON=C1C(=C2C(=O)N(C(C)C)c3cc(Cl)ccc32)Oc2ccccc21` [Compound 54], the IC50 was 1.8 ± 1.9 µM in experiment [1] and 12 ± 1.4 µM in experiment [2]. As to `CON=C1C(=C2C(=O)N(C(C)C)c3ccc(C)cc32)Oc2ccccc21` [Compound 55], the IC50 in experiment [1] was found to be 4 ± 2.4 µM; in experiment [2], 12 ± 1.9 µM.

Source of the values: patent publication US9868734B2, “Conjugate of benzofuranone and indole or azaindole, and preparation and uses thereof” (Luoda Biosciences, Inc., priority 2013, dated 2018).
